Values quoted from earlier work as cited in patent publication US20250161331A1, “ANTI-INFLAMMATORY DRUG-CANNABINOID-COMPRISING NANOEMULSIONS AND METHODS OF USING THE SAME” (SGN Nanopharma Inc., priority 2022, published 2025).
Where two headings read alike, the source gives them in different places.

C=C(C)[C@@H]1CCC(C)=C[C@H]1c1c(O)cc(CCCCC)cc1O [CBD, Cannabidiol]
CBD concentrations decreased (cannabis oil formulations, same timeframe (3-7 days)): up to 38%
CBD concentrations decreased (solution as a tea, room temperature, 3-7 days): ≤ 50%
